Test results as given in ChEMBL document CHEMBL3638757, “Pyridazinones, method of making, and method of use thereof” (2015).
pIC50: −log10 of the molar value.

Target: Tyrosine-protein kinase BTK (Homo sapiens, UniProt Q06187)
Assay: Biochemical Assay: A generalized procedure for a standard biochemical Btk Kinase Assay that can be used to test Formula I compounds is as follows. A master mix minus Btk enzyme is prepared containing IX Cell Signaling kinase buffer (25 mM Tris-HCl, pH 7.5, 5 mM beta- glycerophosphate, 2 mM dithiothreitol, 0.1 mM Na3V04, 10 mM MgCl2), 0.5 ul Promega PTK Biotinylated peptide substrate 2, and 0.01% BSA. A master mix plus Btk enzyme is prepared containing IX Cell Signaling kinase buffer, 0.5 ul PTK Biotinylated peptide substrate 2, 0.01% BSA, and 100 ng/well (0.06 mU/well) Btk enzyme. Btk enzyme is prepared as follows: full length human wildtype Btk (accession number NM-000061) with a C-terminal V5 and 6x His tag was subcloned into pFastBac vector for making baculo virus carrying this epitope-tagged Btk. Generation of baculovirus is done based on Invitrogen's instructions detailed in its published protocol "Bac-to-Bac Baculovirus Expression Systems".

Chain of Tyrosine-protein kinase BTK (Q06187 whole entry): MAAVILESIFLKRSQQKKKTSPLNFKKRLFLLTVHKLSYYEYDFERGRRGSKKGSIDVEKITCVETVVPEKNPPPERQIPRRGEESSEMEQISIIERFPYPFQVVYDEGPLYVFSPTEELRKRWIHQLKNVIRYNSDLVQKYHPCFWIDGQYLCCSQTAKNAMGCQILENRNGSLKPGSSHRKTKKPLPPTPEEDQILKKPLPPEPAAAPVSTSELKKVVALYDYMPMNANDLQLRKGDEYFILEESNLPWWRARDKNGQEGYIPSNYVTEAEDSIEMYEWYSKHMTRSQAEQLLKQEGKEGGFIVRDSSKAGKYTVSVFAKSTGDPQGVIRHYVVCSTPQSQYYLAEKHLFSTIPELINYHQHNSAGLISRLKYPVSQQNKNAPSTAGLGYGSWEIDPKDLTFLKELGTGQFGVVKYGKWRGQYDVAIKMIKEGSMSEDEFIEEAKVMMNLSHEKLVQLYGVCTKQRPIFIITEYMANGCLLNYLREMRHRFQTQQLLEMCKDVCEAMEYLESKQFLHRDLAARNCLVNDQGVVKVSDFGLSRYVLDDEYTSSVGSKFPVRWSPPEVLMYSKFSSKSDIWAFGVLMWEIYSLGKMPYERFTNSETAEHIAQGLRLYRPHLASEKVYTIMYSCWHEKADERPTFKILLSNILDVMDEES

How did the pIC50 turn out when `Cc1cc(Nc2cc(-c3ccc(F)c(N4Cc5cc(C(C)(C)C)sc5C4=O)c3)n[nH]c2=O)nn1C` was run?
Its pIC50 is 8.05.
